For 26 molecules, IC50 results are on record in patent US20240002344A1, “COMPOUNDS, COMPOSITIONS AND METHODS FOR HISTONE LYSINE DEMETHYLASE INHIBITION” (FibroGen, Inc., priority 2020, published 2024).

SMILES strings stand for the structures. Where only a bound is given, the exact number is not on record here.

One test has as its target T1, recombinant human KDM4A (Homo sapiens, UniProt O75164).
T1 construct: made in house
T1 sequence (O75164 1-359 limits assumed): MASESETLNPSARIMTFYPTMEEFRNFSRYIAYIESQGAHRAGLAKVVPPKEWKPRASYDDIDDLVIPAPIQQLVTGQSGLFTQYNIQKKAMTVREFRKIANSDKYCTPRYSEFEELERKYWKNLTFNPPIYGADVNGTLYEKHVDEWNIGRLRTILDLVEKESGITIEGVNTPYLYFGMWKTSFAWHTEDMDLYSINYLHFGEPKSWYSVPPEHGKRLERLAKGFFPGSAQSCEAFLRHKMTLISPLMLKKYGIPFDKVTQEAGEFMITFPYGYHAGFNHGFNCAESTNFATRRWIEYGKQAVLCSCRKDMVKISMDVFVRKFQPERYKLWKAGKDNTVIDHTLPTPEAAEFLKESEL
As to the kind of experiment: 14CO2 capture enzymatic assay (decarboxylation of [1-14C] αKG), KDM4A. In kind it is biochemical. Particulars: 10 μM [1-14C] αKG, 90 μM non-labeled αKG, 50 μM peptide substrate, 37° C., 1 hour, final 1% DMSO. The protocol:
(§1) Enzymatic activity was determined based on the capture of ^14CO2 released by the decarboxylation of [1-^14C] αKG (Zhang et al., Anal. Biochem., 1998, vol. 271, pp. 137-142). [1-^14C]alphaketoglutarate (αKG) was from Perkin-Elmer, H3K4me3 and H3K9me3 peptides were from Mimotopes. All other reagents were from Sigma. Reaction mixtures included the following components: Fe(SO4), [1-^14C] αKG, non-labeled αKG, ascorbate, peptide-substrate (H3K4me3: H-ARTK(me3)QTARKSTGGKAPRKQLA-OH. H3K9me3: H-ARTKQTARK(me3)STGGKAPRKQLA-OH), NaCl, Tween-20 and catalase in 25 mM HEPES buffer, pH 7.4. The enzymatic reactions were initiated by addition of recombinant human KDM5B or KDM4A enzyme (truncated enzyme produced in house by method and using sequence disclosed in Ng et al, Nature 448:87-91, 2007). The reactions were performed in 96-well microtiter plates (20 μL total assay volume) (Greiner #650201). ^14CO2 was captured on a glass fiber filter paper (Cat. No. IH-201-A, Inotech Biosystems International) soaked with saturated Ba(OH)2 that was laid on top of the 96-well plate. A microtiter plate sealer film (Thermal Seal cat #T7961100) was applied to the filter paper. The plate and filter paper were sandwiched between two custom made aluminum plates (Advanced Component Manufacturing, Burlingame, CA) and transferred to a 37° C. oven and allowed to incubate for 1 hour. After incubation, the filter paper was dried in a 103° C. oven for 40-60 minutes. To determine percent turnover, aliquots of the reaction mixture were spotted onto the filter paper and the filter paper was dried again. The dry filter paper was exposed to a storage phosphor screen for 24-72 hours and the images recorded using a Typhoon FLA 7000 Imager (Amersham Biosciences, Piscataway, NJ). Integrated spot intensities corresponding to control reactions lacking the enzyme were subtracted from integration results for enzyme containing reactions and data were converted to enzyme dependent percent ^14CO2 release. All enzymatic reactions were run in duplicates.
(§2) For IC50 determination, a 3-fold dilution series of compound was prepared and added to the reaction mixture (final 1% DMSO, v/v) prior to enzyme addition. The final reagent concentrations were: 10 μM Fe(SO4), 10 μM [1-^14C] αKG, 90 μM non-labeled αKG, 2 mM ascorbate, 50 μM peptide substrate, 75 mM NaCl, 0.01% Tween-20 and ˜2 units/μL catalase. IC50s were determined by non-linear fitting using Grafit version 7.0.

The next test addresses T2, recombinant human KDM5B (Homo sapiens, UniProt Q9UGL1).
T2 sequence (Q9UGL1 374-755 limits assumed): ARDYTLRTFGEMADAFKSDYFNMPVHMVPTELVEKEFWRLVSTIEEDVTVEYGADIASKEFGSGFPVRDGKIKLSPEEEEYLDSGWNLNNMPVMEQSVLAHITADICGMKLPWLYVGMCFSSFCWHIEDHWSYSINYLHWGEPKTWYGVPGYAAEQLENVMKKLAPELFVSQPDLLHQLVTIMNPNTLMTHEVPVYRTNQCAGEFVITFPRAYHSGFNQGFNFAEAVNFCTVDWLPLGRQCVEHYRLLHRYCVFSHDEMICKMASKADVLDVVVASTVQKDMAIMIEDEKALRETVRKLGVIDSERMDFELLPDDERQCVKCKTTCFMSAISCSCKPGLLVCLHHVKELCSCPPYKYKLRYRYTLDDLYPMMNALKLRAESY
As to the kind of experiment: 14CO2 capture enzymatic assay (decarboxylation of [1-14C] αKG), KDM5B. In kind it is biochemical. To be noted: 10 μM [1-14C] αKG, 90 μM non-labeled αKG, 50 μM peptide substrate, 37° C., 1 hour, final 1% DMSO. On the procedure:
as §1, §2

The term IC50 denotes the concentration that gives 50% inhibition. Take `Cc1cccc(-c2cc(C#N)c(O)c(C(=O)CCC(=O)O)n2)c1` [Example 72, 4-(4-Cyano-3-hydroxy-6-m-tolyl-pyridin-2-yl)-4-oxo-butyric acid]: the IC50 is greater than 40 µM on recombinant human KDM4A and 100 nM at recombinant human KDM5B.

Consider `N#Cc1cc(-c2ccc(F)cc2Cl)nc(C(=O)CCC(=O)O)c1O` [Example 83, 4-[6-(2-Chloro-4-fluoro-phenyl)-4-cyano-3-hydroxy-pyridin-2-yl]-4-oxo-butyric acid], for which the values for the 50% inhibitory concentration (IC50) at recombinant human KDM4A and on recombinant human KDM5B were greater than 40 µM and 250 nM, respectively.

For the molecule `N#Cc1cc(-c2ccc3ccccc3c2)nc(C(=O)CCC(=O)O)c1O` [Example 77, 4-(4-Cyano-3-hydroxy-6-naphthalen-2-yl-pyridin-2-yl)-4-oxo-butyric acid], the 50% inhibitory concentration (IC50) at recombinant human KDM4A is 12 µM; on recombinant human KDM5B it was 40 nM.

In the case of `N#Cc1cc(Cc2cccc(Cl)c2Cl)nc(C(=O)CCC(=O)O)c1O` [Example 65, 4-[4-Cyano-6-(2,3-dichloro-benzyl)-3-hydroxy-pyridin-2-yl]-4-oxo-butyric acid], the IC50 turned out to be 14 µM at recombinant human KDM4A and 180 nM at recombinant human KDM5B.

Take `COc1cccc(F)c1Cc1cc(C#N)c(O)c(C(=O)CCC(=O)O)n1` [Example 150, 4-[4-Cyano-6-(2-fluoro-6-methoxy-benzyl)-3-hydroxy-pyridin-2-yl]-4-oxo-butyric acid]: the IC50 on recombinant human KDM4A came to 27 µM; at recombinant human KDM5B it was 280 nM.

With `Cc1cccc(C(F)(F)F)c1Cc1cc(C#N)c(O)c(C(=O)CCC(=O)O)n1` [Example 62, 4-[4-Cyano-3-hydroxy-6-(2-methyl-6-trifluoromethyl-benzyl)-pyridin-2-yl]-4-oxo-butyric acid], the values for the IC50 on recombinant human KDM4A and at recombinant human KDM5B were greater than 40 µM and 470 nM, respectively.

Turning to `Cc1c(C#N)cccc1-c1cc(C#N)c(O)c(C(=O)CCC(=O)O)n1` [Example 98, 4-[4-Cyano-6-(3-cyano-2-methyl-phenyl)-3-hydroxy-pyridin-2-yl]-4-oxo-butyric acid], the half-maximal inhibitory concentration (IC50) is greater than 40 µM on recombinant human KDM4A and 300 nM at recombinant human KDM5B.

On to `N#Cc1cc(Cc2ccccc2C(F)(F)F)nc(C(=O)CCC(=O)O)c1O` [Example 41, 4-[4-Cyano-3-hydroxy-6-(2-trifluoromethyl-benzyl)-pyridin-2-yl]-4-oxo-butyric acid], for which the values for the IC50 on recombinant human KDM4A and on recombinant human KDM5B were 22 µM and 150 nM, respectively.

In the case of `N#Cc1cc(Cc2c(Cl)ccc(F)c2Cl)nc(C(=O)CCC(=O)O)c1O` [Example 149, 4-[4-Cyano-6-(2,6-dichloro-3-fluoro-benzyl)-3-hydroxy-pyridin-2-yl]-4-oxo-butyric acid], the results for the 50% inhibitory concentration (IC50) at recombinant human KDM4A and on recombinant human KDM5B were 3.7 µM and 70 nM, respectively.

For the molecule `COc1cc(Cl)c(Cc2cc(C#N)c(O)c(C(=O)CCC(=O)O)n2)c(Cl)c1` [Example 147, 4-[4-Cyano-6-(2,6-dichloro-4-methoxy-benzyl)-3-hydroxy-pyridin-2-yl]-4-oxo-butyric acid], the half-inhibitory concentration (IC50) at recombinant human KDM4A is greater than 40 µM; at recombinant human KDM5B it was 160 nM.

On to `COc1cccc(-c2cc(C#N)c(O)c(C(=O)CCC(=O)O)n2)c1Cl` [Example 114, 4-[6-(2-Chloro-3-methoxy-phenyl)-4-cyano-3-hydroxy-pyridin-2-yl]-4-oxo-butyric acid], for which the IC50 at recombinant human KDM4A is 10 µM; at recombinant human KDM5B, 140 nM.

For the molecule `N#Cc1cc(Cc2ccc(OC(F)(F)F)cc2)nc(C(=O)CCC(=O)O)c1O` [Example 47, 4-[4-Cyano-3-hydroxy-6-(4-trifluoromethoxy-benzyl)-pyridin-2-yl]-4-oxo-butyric acid], the half-maximal inhibitory concentration (IC50) on recombinant human KDM4A is greater than 40 µM; on recombinant human KDM5B, 300 nM.

For the molecule `N#Cc1cc(-c2cc(F)ccc2Cl)nc(C(=O)CCC(=O)O)c1O` [Example 108, 4-[6-(2-Chloro-5-fluoro-phenyl)-4-cyano-3-hydroxy-pyridin-2-yl]-4-oxo-butyric acid], the results for the IC50 on recombinant human KDM4A and at recombinant human KDM5B were greater than 40 µM and 270 nM, respectively.

Take `N#Cc1ccccc1Cc1cc(C#N)c(O)c(C(=O)CCC(=O)O)n1` [Example 46, 4-[4-Cyano-6-(2-cyano-benzyl)-3-hydroxy-pyridin-2-yl]-4-oxo-butyric acid]: the IC50 turned out to be 13 µM at recombinant human KDM4A and 430 nM at recombinant human KDM5B.

Take `N#Cc1cc(Cc2ccc3ccccc3c2)nc(C(=O)CCC(=O)O)c1O` [Example 24, 4-(4-Cyano-3-hydroxy-6-naphthalen-2-ylmethyl-pyridin-2-yl)-4-oxo-butyric acid]: the IC50 at recombinant human KDM4A is greater than 40 µM; at recombinant human KDM5B, 520 nM.

Regarding `N#Cc1cc(Oc2ccccc2)cc(C(=O)CCC(=O)O)c1O` [Example 132, 4-(3-Cyano-2-hydroxy-5-phenoxy-phenyl)-4-oxo-butyric acid], the concentration for half-maximal inhibition (IC50) on recombinant human KDM4A was greater than 40 µM; on recombinant human KDM5B it was 310 nM.

Turning to `N#Cc1cc(-c2ccc(Cl)cc2)cc(C(=O)CCC(=O)O)c1O` [Example 118, 4-(4′-Chloro-5-cyano-4-hydroxy-biphenyl-3-yl)-4-oxo-butyric acid], the IC50 on recombinant human KDM4A is greater than 40 µM; at recombinant human KDM5B, 160 nM.

`Cc1cccc(Cc2cc(C#N)c(O)c(C(=O)CCC(=O)O)n2)c1` [Example 37, 4-[4-Cyano-3-hydroxy-6-(3-methyl-benzyl)-pyridin-2-yl]-4-oxo-butyric acid]: the IC50 at recombinant human KDM4A is greater than 40 µM; at recombinant human KDM5B, 60 nM.

`Cc1cc(F)ccc1-c1cc(C#N)c(O)c(C(=O)CCC(=O)O)n1` [Example 86, 4-[4-Cyano-6-(4-fluoro-2-methyl-phenyl)-3-hydroxy-pyridin-2-yl]-4-oxo-butyric acid]: the half-maximal inhibitory concentration (IC50) on recombinant human KDM4A is greater than 40 µM; at recombinant human KDM5B, 450 nM.

As for `N#Cc1cc(Oc2ccccc2)nc(C(=O)CCC(=O)O)c1O` [Example 76, 4-(4-Cyano-3-hydroxy-6-phenoxy-pyridin-2-yl)-4-oxo-butyric acid], the half-inhibitory concentration (IC50) at recombinant human KDM4A is greater than 40 µM; on recombinant human KDM5B it was 190 nM.

For the molecule `N#Cc1cc(-c2ccccc2)cc(C(=O)CCC(=O)O)c1O` [Example 104, 4-(5-Cyano-4-hydroxy-biphenyl-3-yl)-4-oxo-butyric acid], the IC50 is greater than 40 µM on recombinant human KDM4A and 460 nM at recombinant human KDM5B.

In the case of `N#Cc1cc(Cc2ccccc2)cc(C(=O)CCC(=O)O)c1O` [Example 117, 4-(5-Benzyl-3-cyano-2-hydroxy-phenyl)-4-oxo-butyric acid], the IC50 was greater than 40 µM at recombinant human KDM4A and 280 nM on recombinant human KDM5B.

`Cc1cc(Cl)ccc1-c1cc(C#N)c(O)c(C(=O)CCC(=O)O)n1` [Example 90, 4-[6-(4-Chloro-2-methyl-phenyl)-4-cyano-3-hydroxy-pyridin-2-yl]-4-oxo-butyric acid]: the IC50 at recombinant human KDM4A is greater than 40 µM; on recombinant human KDM5B it was 250 nM.

Consider `N#Cc1cc(C(F)(F)F)nc(C(=O)CCC(=O)O)c1O` [Example 35, 4-(4-Cyano-3-hydroxy-6-trifluoromethyl-pyridin-2-yl)-4-oxo-butyric acid], for which the IC50 on recombinant human KDM4A amounted to 12 µM; on recombinant human KDM5B, 50 nM.

`N#Cc1cc(CCc2ccccc2)nc(C(=O)CCC(=O)O)c1O` [Example 15, 4-(4-Cyano-3-hydroxy-6-phenethyl-pyridin-2-yl)-4-oxo-butyric acid]: the IC50 on recombinant human KDM4A was greater than 40 µM; at recombinant human KDM5B, 390 nM.

With `N#Cc1cc(Cc2ccccc2Cc2ccccc2)nc(C(=O)CCC(=O)O)c1O` [Example 146, 4-[6-(2-Benzyl-benzyl)-4-cyano-3-hydroxy-pyridin-2-yl]-4-oxo-butyric acid], the half-maximal inhibitory concentration (IC50) on recombinant human KDM4A turned out to be 39 µM; on recombinant human KDM5B it was 140 nM.
